Data taken from PubChem BioAssay (NCI).
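Test compounds were applied to cells in 96-well plates for 48 hours at 5 doses. Abbreviation: GI50, concentration required for 50% inhibition of growth. TGI denotes the concentration required for complete inhibition of growth.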

Key:
Test in all cases: DTP human tumour cell line panel, 48 h
[1] = tested on: CAKI-1 renal
[2] = tested on: TK-10 renal
[3] = tested on: HOP-92 NSCLC
[4] = tested on: RXF 393 renal
[5] = tested on: HT29 colon
[6] = tested on: SW-620 colon
[7] = tested on: UO-31 renal
[8] = tested on: MALME-3M melanoma
[9] = tested on: NCI-H460 lung
[10] = tested on: SK-MEL-28 melanoma
[11] = tested on: SF-539 CNS
[12] = tested on: HCT-15 colon
[13] = tested on: OVCAR-5 ovarian
[14] = tested on: SNB-19 CNS
[15] = tested on: SR leukemia
[16] = tested on: UACC-62 melanoma
[17] = tested on: MOLT-4 leukemia
[18] = tested on: U251 CNS
[19] = tested on: SN12C renal
[20] = tested on: KM12 colon
[21] = tested on: COLO 205 colon
[22] = tested on: CCRF-CEM leukemia
[23] = tested on: 786-0 renal
[24] = tested on: SK-MEL-5 melanoma
[25] = tested on: M14 melanoma
[26] = tested on: HS 578T breast
[27] = tested on: BT-549 breast
[28] = tested on: UACC-257 melanoma
[29] = tested on: LOX IMVI melanoma
[30] = tested on: T-47D breast
[31] = tested on: A498 renal
[32] = tested on: HCC-2998 colon
[33] = tested on: DU-145 prostate
[34] = tested on: SF-295 CNS
[35] = tested on: HCT-116 colon
[36] = tested on: MCF7 breast
[37] = tested on: MDA-MB-231 breast
[38] = tested on: A549 NSCLC
[39] = tested on: SNB-75 CNS
[40] = tested on: ACHN renal
[41] = tested on: MDA-MB-435
[42] = tested on: OVCAR-3 ovarian
[43] = tested on: SK-MEL-2 melanoma
[44] = tested on: SF-268 CNS
[45] = tested on: NCI-H522 lung
[46] = tested on: NCI/ADR-RES ovarian
[47] = tested on: PC-3 prostate
[48] = tested on: IGROV1 ovarian
[49] = tested on: K-562 leukemia
[50] = tested on: SK-OV-3 ovarian
[51] = tested on: OVCAR-8 ovarian
[52] = tested on: HL-60(TB) leukemia
[53] = tested on: NCI-H23 lung
[54] = tested on: HOP-62 NSCLC
[55] = tested on: RPMI-8226 leukemia
[56] = tested on: OVCAR-4 ovarian
[57] = tested on: NCI-H226 lung
[58] = tested on: EKVX NSCLC

COc1ccc(Cn2c(Br)c3c(c2Br)-c2nc(N)sc2CC3)cc1
GI50 [1]: 2.9 µM
TGI [1]: 10.4 µM
GI50 [2]: 3.69 µM
TGI [2]: 12.7 µM
GI50 [3]: 2.24 µM
TGI [3]: 14 µM
GI50 [4]: 1.97 µM
TGI [4]: 5.05 µM
GI50 [5]: 4.14 µM
TGI [5]: 13.2 µM
GI50 [6]: 3.1 µM
TGI [6]: 11.4 µM
GI50 [7]: 1.59 µM
TGI [7]: 3.97 µM
GI50 [8]: 5.22 µM
TGI [8]: 19.9 µM
GI50 [9]: 3.88 µM
TGI [9]: 17.3 µM
GI50 [10]: 4.98 µM
TGI [10]: 18.1 µM
GI50 [11]: 3.48 µM
TGI [11]: 13.5 µM
GI50 [12]: 2.67 µM
TGI [12]: 20.2 µM
GI50 [13]: 16 µM
TGI [13]: 50.5 µM
GI50 [14]: 8.68 µM
TGI [14]: > 100 µM
GI50 [15]: 0.84 µM
TGI [15]: > 100 µM
GI50 [16]: 6.97 µM
TGI [16]: 26 µM
GI50 [17]: 0.962 µM
TGI [17]: 21.7 µM
GI50 [18]: 5.15 µM
TGI [18]: 19 µM
GI50 [19]: 5.47 µM
TGI [19]: 21 µM
GI50 [20]: 3.47 µM
TGI [20]: 20.6 µM
GI50 [21]: 2.2 µM
TGI [21]: 4.42 µM
GI50 [22]: 0.472 µM
TGI [22]: 15.1 µM
GI50 [23]: 5.02 µM
TGI [23]: 28.6 µM
GI50 [24]: 4.83 µM
TGI [24]: 18.7 µM
GI50 [25]: 3.96 µM
TGI [25]: 17.6 µM
GI50 [26]: 5.61 µM
TGI [26]: > 100 µM
GI50 [27]: 9.16 µM
TGI [27]: 30.4 µM
GI50 [28]: 8.48 µM
TGI [28]: 22.3 µM
GI50 [29]: 3.35 µM
TGI [29]: 16.3 µM
GI50 [30]: 3.03 µM
TGI [30]: 12.8 µM
GI50 [31]: 4.66 µM
TGI [31]: 17.3 µM
GI50 [32]: 13.3 µM
TGI [32]: 28.2 µM
GI50 [33]: 6.13 µM
TGI [33]: 39.6 µM
GI50 [34]: 3.07 µM
TGI [34]: 10.4 µM
GI50 [35]: 2.89 µM
TGI [35]: 11.2 µM
GI50 [36]: 3.58 µM
TGI [36]: 17.6 µM
GI50 [37]: 5.97 µM
TGI [37]: 26.8 µM
GI50 [38]: 4.77 µM
TGI [38]: 77 µM
GI50 [39]: 1.92 µM
TGI [39]: 8.64 µM
GI50 [40]: 3.22 µM
TGI [40]: 12 µM
GI50 [41]: 0.407 µM
TGI [41]: 10.4 µM
GI50 [42]: 4.1 µM
TGI [42]: 15.5 µM
GI50 [43]: 5.56 µM
TGI [43]: 19.9 µM
GI50 [44]: 6.15 µM
TGI [44]: 46.6 µM
GI50 [45]: 1.59 µM
TGI [45]: 3.04 µM
GI50 [46]: 4.85 µM
TGI [46]: 53.5 µM
GI50 [47]: 4.76 µM
TGI [47]: 30.1 µM
GI50 [48]: 11.6 µM
TGI [48]: 39.2 µM
GI50 [49]: 2.43 µM
TGI [49]: 57.9 µM
GI50 [50]: 4.01 µM
TGI [50]: 20 µM
GI50 [51]: 3.43 µM
TGI [51]: 18.4 µM
GI50 [52]: 2.75 µM
TGI [52]: 22.6 µM
GI50 [53]: 10.6 µM
TGI [53]: 38.6 µM
GI50 [54]: 6.55 µM
TGI [54]: 20.5 µM

COc1cccc(-c2cc(=O)c3cc(N4CCCCC4)ccc3[nH]2)c1
TGI [1]: > 100 µM
TGI [2]: > 100 µM
TGI [3]: > 100 µM
TGI [4]: 1.62 µM
TGI [5]: 0.0316 µM
TGI [6]: > 100 µM
TGI [7]: > 100 µM
TGI [8]: > 100 µM
TGI [10]: > 100 µM
TGI [11]: 0.0139 µM
TGI [12]: > 100 µM
TGI [13]: > 100 µM
TGI [14]: > 100 µM
TGI [55]: > 100 µM
TGI [16]: > 100 µM
TGI [17]: > 100 µM
TGI [18]: > 85.9 µM
TGI [19]: > 100 µM
TGI [20]: 0.783 µM
TGI [22]: > 100 µM
TGI [23]: > 48 µM
TGI [24]: 9.55 µM
TGI [25]: > 100 µM
TGI [26]: > 86.1 µM
TGI [28]: > 100 µM
TGI [29]: > 100 µM
TGI [30]: > 100 µM
TGI [31]: > 100 µM
TGI [33]: > 100 µM
TGI [36]: > 100 µM
TGI [37]: > 100 µM
TGI [56]: > 57.9 µM
TGI [40]: > 96.6 µM
TGI [42]: 13.3 µM
TGI [43]: > 100 µM
TGI [44]: > 100 µM
TGI [45]: > 21 µM
TGI [47]: > 100 µM
TGI [48]: > 100 µM
TGI [49]: > 100 µM
TGI [57]: 0.0652 µM
TGI [50]: > 100 µM
TGI [51]: > 100 µM
TGI [58]: > 100 µM
TGI [53]: > 20.4 µM
TGI [54]: > 43.9 µM
